Data on 13 molecules can be found in patent publication US7572786B2, “Substituted 1-piperidin-3-yl-4-piperidin-4-yl-piperazine derivatives and their use as neurokinin antagonists” (Janssen Pharmaceutica, N.V., priority 2002, dated 2009).

The structures appear in SMILES notation.

The target of one assay is NK1 (Homo sapiens, UniProt P25103). Description: Signal transduction (ST), intracellular Ca++ (FLIPR), NK1 antagonism. The format is cell-based.
Sequence of NK1 (P25103 whole entry): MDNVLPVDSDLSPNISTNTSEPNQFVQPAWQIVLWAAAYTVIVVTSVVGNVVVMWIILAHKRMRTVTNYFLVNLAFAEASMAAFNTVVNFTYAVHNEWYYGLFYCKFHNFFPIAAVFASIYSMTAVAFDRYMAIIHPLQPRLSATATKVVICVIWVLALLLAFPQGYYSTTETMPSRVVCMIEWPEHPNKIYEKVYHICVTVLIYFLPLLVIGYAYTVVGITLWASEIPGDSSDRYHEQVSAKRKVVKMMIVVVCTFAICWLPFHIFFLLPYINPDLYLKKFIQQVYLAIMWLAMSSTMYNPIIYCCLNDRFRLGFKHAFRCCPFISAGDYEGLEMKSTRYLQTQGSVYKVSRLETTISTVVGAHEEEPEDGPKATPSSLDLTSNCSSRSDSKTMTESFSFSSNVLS
Conditions: not given
Here is the method: (§1) This test evaluates in vitro functional NK1 antagonistic activity. For the measurements of intracellular Ca^++ concentrations the cells were grown on 96-well (black wall/transparent bottom) plates from Costar for 2 days until they reached confluence. The cells were loaded with 2 μM Fluo3 in DMEM containing 0.1% BSA and 2.5 mM probenecid for 1 h at 37° C. […] The cells were preincubated with a concentration range of antagonists for 20 min at RT and Ca^++-signals after addition of the agonists were measured in a Fluorescence Image Plate Reader (FLIPR from Molecular Devices, Crawley, England). The peak of the Ca^++-transient was considered as the relevant signal and the mean values of corresponding wells were analysed as described below.
(§2) The sigmoidal dose response curves were analysed by computerised curve-fitting, using the GraphPad Program. […] For antagonist responses the IC50-value was calculated using non-linear regression.
For `O=C(c1cc(CCOCc2ccccc2)cs1)N1CCCC(N2CCN([C@H]3CCN(C(=O)c4cc(C(F)(F)F)cc(C(F)(F)F)c4)[C@H](Cc4ccccc4)C3)CC2)C1` (stereo partly drawn) [Compound 99], the “pIC50 NK1” value is listed as 6.7.

Turning to `O=C(c1cc(C(F)(F)F)cc(C(F)(F)F)c1)N1CC[C@H](N2CCN(C3CCCN(S(=O)(=O)c4cc(Cl)sc4Cl)C3)CC2)C[C@H]1Cc1ccccc1` (stereo partly drawn) [Compound 40], the “pIC50 NK1” value is on record as 7.6.

Staying with this assay, now noted: read-out: pIC50 NK1 (converted).
With `O=C(c1c(Cl)cccc1Cl)N1CCCC(N2CCN([C@H]3CCN(C(=O)c4cc(C(F)(F)F)cc(C(F)(F)F)c4)[C@H](Cc4ccccc4)C3)CC2)C1` (stereo partly drawn) [Compound 64], the IC50 is 0.0126 µM.

For `Cc1ccccc1S(=O)(=O)N1CCCC(N2CCN([C@H]3CCN(C(=O)c4cc(C(F)(F)F)cc(C(F)(F)F)c4)[C@H](Cc4ccccc4)C3)CC2)C1` (stereo partly drawn) [Compound 30], the IC50 is 0.0158 µM.

In the case of `O=C(c1cc(C(F)(F)F)cc(C(F)(F)F)c1)N1CCC(N2CCN(C3CCCN(S(=O)(=O)c4ccc(O)cc4)C3)CC2)CC1Cc1ccccc1` (stereo not drawn) [Compound 78], the IC50 is 0.00398 µM.

As for `O=C(c1sccc1CO)N1CCCC(N2CCN([C@H]3CCN(C(=O)c4cc(C(F)(F)F)cc(C(F)(F)F)c4)[C@H](Cc4ccccc4)C3)CC2)C1` (stereo partly drawn) [Compound 97], the IC50 is 0.01 µM.

In the case of `Cc1nc(C)c(S(=O)(=O)N2CCCC(N3CCN([C@H]4CCN(C(=O)c5cc(C(F)(F)F)cc(C(F)(F)F)c5)[C@H](Cc5ccccc5)C4)CC3)C2)s1` (stereo partly drawn) [Compound 38], the IC50 was 0.00631 µM.

As for `COc1ccccc1C(=O)N1CCCC(N2CCN([C@H]3CCN(C(=O)c4cc(C(F)(F)F)cc(C(F)(F)F)c4)[C@H](Cc4ccccc4)C3)CC2)C1` (stereo partly drawn) [Compound 47], the IC50 is 0.0158 µM.

Turning to `Cc1noc(C)c1S(=O)(=O)N1CCCC(N2CCN([C@H]3CCN(C(=O)c4cc(C(F)(F)F)cc(C(F)(F)F)c4)[C@H](Cc4ccccc4)C3)CC2)C1` (stereo partly drawn) [Compound 39], the IC50 was 0.00631 µM.

On to `O=C(c1cc(C(F)(F)F)cc(C(F)(F)F)c1)N1CC[C@H](N2CCN(C3CCCN(S(=O)(=O)c4ccc(CCOCc5ccccc5)s4)C3)CC2)C[C@H]1Cc1ccccc1` (stereo partly drawn) [Compound 84], for which the IC50 was 0.251 µM.

In the case of `O=C(c1cc(C(F)(F)F)cc(C(F)(F)F)c1)N1CC[C@H](N2CCN(C3CCCN(S(=O)(=O)c4ccc(COCc5ccccc5)s4)C3)CC2)C[C@H]1Cc1ccccc1` (stereo partly drawn) [Compound 87], the IC50 was 0.316 µM.

With `O=C(c1cc(C(F)(F)F)cc(C(F)(F)F)c1)N1CC[C@H](N2CCN(C3CCCN(S(=O)(=O)c4ccc5nonc5c4)C3)CC2)C[C@H]1Cc1ccccc1` (stereo partly drawn) [Compound 45], the IC50 is 0.02 µM.

With `O=C(c1cc(C(F)(F)F)cc(C(F)(F)F)c1)N1CC[C@H](N2CCN(C3CCCN(S(=O)(=O)c4c(Cl)nc5sccn45)C3)CC2)C[C@H]1Cc1ccccc1` (stereo partly drawn) [Compound 46], the IC50 is 0.0158 µM.

A further assay has as its target T1, NK3 (Homo sapiens, UniProt P29371).
T1 sequence (P29371 1-465): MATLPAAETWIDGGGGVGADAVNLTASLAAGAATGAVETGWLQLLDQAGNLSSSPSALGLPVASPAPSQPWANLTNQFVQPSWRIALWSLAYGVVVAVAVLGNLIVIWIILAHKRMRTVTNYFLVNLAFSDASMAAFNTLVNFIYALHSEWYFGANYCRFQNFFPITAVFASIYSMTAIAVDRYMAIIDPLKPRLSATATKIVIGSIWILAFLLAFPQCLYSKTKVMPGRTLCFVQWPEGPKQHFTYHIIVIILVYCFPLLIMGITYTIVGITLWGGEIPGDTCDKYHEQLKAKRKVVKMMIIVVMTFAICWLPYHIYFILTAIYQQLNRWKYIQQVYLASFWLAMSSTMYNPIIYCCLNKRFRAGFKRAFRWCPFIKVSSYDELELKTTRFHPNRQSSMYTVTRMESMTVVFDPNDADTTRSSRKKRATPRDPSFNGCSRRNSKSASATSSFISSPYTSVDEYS
Kind of assay: Signal transduction (ST), intracellular Ca++ (FLIPR), NK3. In kind it is cell-based.
Conditions: not given
How it is done: [The source words this procedure for another target and reports this target under the same test.] as §1, §2
`O=C(c1cc(CCOCc2ccccc2)cs1)N1CCCC(N2CCN([C@H]3CCN(C(=O)c4cc(C(F)(F)F)cc(C(F)(F)F)c4)[C@H](Cc4ccccc4)C3)CC2)C1` (stereo partly drawn) [Compound 99]: the “pIC50 NK3” value is given as 5.5.

Take `O=C(c1cc(C(F)(F)F)cc(C(F)(F)F)c1)N1CC[C@H](N2CCN(C3CCCN(S(=O)(=O)c4cc(Cl)sc4Cl)C3)CC2)C[C@H]1Cc1ccccc1` (stereo partly drawn) [Compound 40]: the “pIC50 NK3” value was 6.6.

Staying with this assay, now noted: read-out: pIC50 NK3 (converted).
Consider `O=C(c1c(Cl)cccc1Cl)N1CCCC(N2CCN([C@H]3CCN(C(=O)c4cc(C(F)(F)F)cc(C(F)(F)F)c4)[C@H](Cc4ccccc4)C3)CC2)C1` (stereo partly drawn) [Compound 64], for which the IC50 is 0.794 µM.

As for `Cc1ccccc1S(=O)(=O)N1CCCC(N2CCN([C@H]3CCN(C(=O)c4cc(C(F)(F)F)cc(C(F)(F)F)c4)[C@H](Cc4ccccc4)C3)CC2)C1` (stereo partly drawn) [Compound 30], the IC50 was 0.631 µM.

Consider `O=C(c1cc(C(F)(F)F)cc(C(F)(F)F)c1)N1CCC(N2CCN(C3CCCN(S(=O)(=O)c4ccc(O)cc4)C3)CC2)CC1Cc1ccccc1` (stereo not drawn) [Compound 78], for which the IC50 is 0.316 µM.

As for `O=C(c1sccc1CO)N1CCCC(N2CCN([C@H]3CCN(C(=O)c4cc(C(F)(F)F)cc(C(F)(F)F)c4)[C@H](Cc4ccccc4)C3)CC2)C1` (stereo partly drawn) [Compound 97], the IC50 was 2.51 µM.

Turning to `Cc1nc(C)c(S(=O)(=O)N2CCCC(N3CCN([C@H]4CCN(C(=O)c5cc(C(F)(F)F)cc(C(F)(F)F)c5)[C@H](Cc5ccccc5)C4)CC3)C2)s1` (stereo partly drawn) [Compound 38], the IC50 was 0.251 µM.

As for `COc1ccccc1C(=O)N1CCCC(N2CCN([C@H]3CCN(C(=O)c4cc(C(F)(F)F)cc(C(F)(F)F)c4)[C@H](Cc4ccccc4)C3)CC2)C1` (stereo partly drawn) [Compound 47], the IC50 was 0.501 µM.

`Cc1noc(C)c1S(=O)(=O)N1CCCC(N2CCN([C@H]3CCN(C(=O)c4cc(C(F)(F)F)cc(C(F)(F)F)c4)[C@H](Cc4ccccc4)C3)CC2)C1` (stereo partly drawn) [Compound 39]: the IC50 is 0.501 µM.

Consider `O=C(c1cc(C(F)(F)F)cc(C(F)(F)F)c1)N1CC[C@H](N2CCN(C3CCCN(S(=O)(=O)c4ccc(CCOCc5ccccc5)s4)C3)CC2)C[C@H]1Cc1ccccc1` (stereo partly drawn) [Compound 84], for which the IC50 is 1.26 µM.

`O=C(c1cc(C(F)(F)F)cc(C(F)(F)F)c1)N1CC[C@H](N2CCN(C3CCCN(S(=O)(=O)c4ccc(COCc5ccccc5)s4)C3)CC2)C[C@H]1Cc1ccccc1` (stereo partly drawn) [Compound 87]: the IC50 is 7.94 µM.

For `O=C(c1cc(C(F)(F)F)cc(C(F)(F)F)c1)N1CC[C@H](N2CCN(C3CCCN(S(=O)(=O)c4ccc5nonc5c4)C3)CC2)C[C@H]1Cc1ccccc1` (stereo partly drawn) [Compound 45], the IC50 is 0.398 µM.

In the case of `O=C(c1cc(C(F)(F)F)cc(C(F)(F)F)c1)N1CC[C@H](N2CCN(C3CCCN(S(=O)(=O)c4c(Cl)nc5sccn45)C3)CC2)C[C@H]1Cc1ccccc1` (stereo partly drawn) [Compound 46], the IC50 was 0.794 µM.

For another assay, the target named is T2, NK2 (Homo sapiens, UniProt P21452).
T2 sequence (P21452 1-398): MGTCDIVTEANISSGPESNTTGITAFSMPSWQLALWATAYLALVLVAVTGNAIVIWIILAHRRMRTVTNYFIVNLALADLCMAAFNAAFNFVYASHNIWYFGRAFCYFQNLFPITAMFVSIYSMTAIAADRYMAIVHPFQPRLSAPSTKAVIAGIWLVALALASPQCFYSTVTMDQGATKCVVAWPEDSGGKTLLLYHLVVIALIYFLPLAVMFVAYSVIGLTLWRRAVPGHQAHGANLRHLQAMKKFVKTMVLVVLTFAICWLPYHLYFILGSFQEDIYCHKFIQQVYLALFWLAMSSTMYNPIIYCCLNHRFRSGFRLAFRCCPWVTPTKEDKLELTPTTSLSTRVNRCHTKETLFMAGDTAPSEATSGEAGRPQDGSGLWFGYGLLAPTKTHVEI
Kind of assay: Signal transduction (ST), intracellular Ca++ (FLIPR), NK2.
Conditions: not given
In kind it is cell-based. How it is done:
[The source words this procedure for another target and reports this target under the same test.] as §1, §2
As for `O=C(c1cc(CCOCc2ccccc2)cs1)N1CCCC(N2CCN([C@H]3CCN(C(=O)c4cc(C(F)(F)F)cc(C(F)(F)F)c4)[C@H](Cc4ccccc4)C3)CC2)C1` (stereo partly drawn) [Compound 99], the “pIC50 NK2” value stood at 5.2.

For the molecule `O=C(c1cc(C(F)(F)F)cc(C(F)(F)F)c1)N1CC[C@H](N2CCN(C3CCCN(S(=O)(=O)c4cc(Cl)sc4Cl)C3)CC2)C[C@H]1Cc1ccccc1` (stereo partly drawn) [Compound 40], the “pIC50 NK2” value is 5.1.

Still in this assay, the particulars now being: read-out: pIC50 NK2 (converted).
On to `O=C(c1c(Cl)cccc1Cl)N1CCCC(N2CCN([C@H]3CCN(C(=O)c4cc(C(F)(F)F)cc(C(F)(F)F)c4)[C@H](Cc4ccccc4)C3)CC2)C1` (stereo partly drawn) [Compound 64], for which the IC50 was 6.31 µM.

Turning to `Cc1ccccc1S(=O)(=O)N1CCCC(N2CCN([C@H]3CCN(C(=O)c4cc(C(F)(F)F)cc(C(F)(F)F)c4)[C@H](Cc4ccccc4)C3)CC2)C1` (stereo partly drawn) [Compound 30], the IC50 was 0.631 µM.

On to `O=C(c1cc(C(F)(F)F)cc(C(F)(F)F)c1)N1CCC(N2CCN(C3CCCN(S(=O)(=O)c4ccc(O)cc4)C3)CC2)CC1Cc1ccccc1` (stereo not drawn) [Compound 78], for which the IC50 was 0.794 µM.

Take `O=C(c1sccc1CO)N1CCCC(N2CCN([C@H]3CCN(C(=O)c4cc(C(F)(F)F)cc(C(F)(F)F)c4)[C@H](Cc4ccccc4)C3)CC2)C1` (stereo partly drawn) [Compound 97]: the IC50 is 3.98 µM.

As to `Cc1nc(C)c(S(=O)(=O)N2CCCC(N3CCN([C@H]4CCN(C(=O)c5cc(C(F)(F)F)cc(C(F)(F)F)c5)[C@H](Cc5ccccc5)C4)CC3)C2)s1` (stereo partly drawn) [Compound 38], the IC50 is 0.2 µM.

For the molecule `COc1ccccc1C(=O)N1CCCC(N2CCN([C@H]3CCN(C(=O)c4cc(C(F)(F)F)cc(C(F)(F)F)c4)[C@H](Cc4ccccc4)C3)CC2)C1` (stereo partly drawn) [Compound 47], the IC50 is 5.01 µM.

In the case of `Cc1noc(C)c1S(=O)(=O)N1CCCC(N2CCN([C@H]3CCN(C(=O)c4cc(C(F)(F)F)cc(C(F)(F)F)c4)[C@H](Cc4ccccc4)C3)CC2)C1` (stereo partly drawn) [Compound 39], the IC50 was 0.631 µM.

With `O=C(c1cc(C(F)(F)F)cc(C(F)(F)F)c1)N1CC[C@H](N2CCN(C3CCCN(S(=O)(=O)c4ccc(CCOCc5ccccc5)s4)C3)CC2)C[C@H]1Cc1ccccc1` (stereo partly drawn) [Compound 84], the IC50 is 0.501 µM.

`O=C(c1cc(C(F)(F)F)cc(C(F)(F)F)c1)N1CC[C@H](N2CCN(C3CCCN(S(=O)(=O)c4ccc(COCc5ccccc5)s4)C3)CC2)C[C@H]1Cc1ccccc1` (stereo partly drawn) [Compound 87]: the IC50 is 0.794 µM.

With `O=C(c1cc(C(F)(F)F)cc(C(F)(F)F)c1)N1CC[C@H](N2CCN(C3CCCN(S(=O)(=O)c4ccc5nonc5c4)C3)CC2)C[C@H]1Cc1ccccc1` (stereo partly drawn) [Compound 45], the IC50 was 1.58 µM.

On to `O=C(c1cc(C(F)(F)F)cc(C(F)(F)F)c1)N1CC[C@H](N2CCN(C3CCCN(S(=O)(=O)c4c(Cl)nc5sccn45)C3)CC2)C[C@H]1Cc1ccccc1` (stereo partly drawn) [Compound 46], for which the IC50 was 0.501 µM.
